Measured values taken from patent publication US9222118B2 (priority 2008, dated 2015).
Where two headings read alike, the source gives them in different places.

Legend:
EbolaΔVP30-GFP virus = test: microbe, parasite or virus in culture; type: cell-based, Zaire ebolavirus; conditions: for % GFP inhibition: 5 µM; for inhibition at 5 µM: Zaire ebolavirus, read-out: % GFP inhibition

Compound | % GFP inhibition (EbolaΔVP30-GFP virus) [%] | % cell viability (VeroVP30 cells) [%] | other results
CC(=O)O[C@@H]1CC2C(C)(C)[C@H](O)C=C[C@]2(C)C2CC[C@@]3(C)[C@H](c4ccoc4)OC(=O)C4OC43[C@@]21C (stereo partly drawn) [Gedunol] | 79 | 82 | –
CC1(C)C2CC(=O)[C@]3(C)C(CC[C@@]4(C)[C@H](c5ccoc5)OC(=O)C5OC543)[C@@]2(C)[C@@H](O)C[C@H]1O (stereo partly drawn) [1,3-Dideacetyl-7-deacetoxy-7-oxokhivorin] | 100 | 78 | IC50 (EbolaΔVP30-GFP virus; read-out: IC50): < 150 nM; CC50 (VeroVP30 cells): > 10 µM
3beta-Hydroxydeoxydesacetoxy-7-oxogedunin | 75 | 81 | –
C=C1[C@@H]2CC[C@@]3(C)[C@H](c4ccoc4)OC(=O)C[C@]13O[C@H]1CC(=O)C(C)(C)[C@H](CC(=O)OC)[C@]12C [Angolensic acid, methyl ester] | 4 | 85 | –
CC(=O)O[C@@H]1CC2C(C)(C)[C@H](O)CC[C@]2(C)C2CC[C@@]3(C)[C@H](c4ccoc4)OC(=O)C4OC43[C@@]21C (stereo partly drawn) [3alpha-Hydroxydeoxodihydrogedunin] | 85 | 94 | –
11alpha-Acetoxykhivorin | −47 | 93 | –
CC(=O)O[C@H]1C[C@@H](OC(C)=O)C(C)(C)[C@@H]2C[C@@H](OC(C)=O)[C@]3(C)[C@H](CC[C@@]4(C)[C@H](c5ccoc5)OC(=O)[C@H]5O[C@@]534)[C@@]12C [Khivorin] | – | – | inhibition at 5 µM (EbolaΔVP30-GFP virus): 0%; % cell viability (VeroVP30 cells; green monkey): 82%
CC(=O)O[C@@H]1CC(=O)[C@@]2(C)C(CC(=O)[C@]3(C)C2CC[C@@]2(C)[C@H](c4ccoc4)OC(=O)C4OC423)C1(C)C (stereo partly drawn) [1,7-Dideacetoxy-1,7-dioxokhivorin] | 39 | 88 | –
6-Hydroxyangolensic acid methyl ester | 15 | 94 | –
CCC(C)C(=O)O[C@@H]1C[C@@]2(C)[C@H](c3ccoc3)OC(=O)CC23OC2(C)O[C@]14[C@]1(C)[C@@H](CC(=O)OC)C5(C)CC1(O)[C@](O)(C5OC(=O)C1(C)OC1C)[C@@H](OC(C)=O)[C@]34O2 (stereo partly drawn) [Utilin] | – | – | inhibition at 5 µM (EbolaΔVP30-GFP virus): 4%; % cell viability (VeroVP30 cells; green monkey): 75%
CC(=O)O[C@@H]1C[C@H]2C(C)(C)CCC(=O)[C@]2(C)[C@H]2CC[C@@]3(C)[C@H](c4ccoc4)OC(=O)[C@H]4O[C@]43[C@@]21C [2,3-Dihydroisogedunin] | −17 | 91 | –
CC1(C)C(=O)C=C[C@]2(C)[C@H]3CC[C@@]4(C)[C@H](c5ccoc5)OC(=O)[C@H]5O[C@]54[C@]3(C)[C@H](O)C[C@@H]12 [Deacetylgedunin] | – | – | anti-Ebolavirus activity (EbolaΔVP30-GFP virus): did not show any anti-Ebolavirus activity; inhibition at 5 µM (EbolaΔVP30-GFP virus): 45%; % cell viability (VeroVP30 cells; green monkey): 86%
CC1(C)C2CC(=O)[C@]3(C)C(CC[C@@]4(C)[C@H](c5ccoc5)OC(=O)[C@H]5O[C@]543)[C@@]2(C)C(=O)C[C@H]1O (stereo partly drawn) [1,7-Dideacetoxy-1,7-dioxo-3-deacetylkhivorin] | 14 | 87 | –
7-Deacetyldihydrogedunin | −30 | 85 | –
CCC(C)C(OC(C)=O)C(=O)O[C@H]1[C@H](O)[C@@H]2[C@@]3(C)C=CC(=O)C(C)(C)[C@@H]3C[C@@H](OC(=O)C(O)C(C)C)[C@@]2(C)[C@@]23O[C@@H]2C[C@@H](c2ccoc2)[C@]13C (stereo partly drawn) [Heudelottin C] | 104 | 5 | –
